The target in assay [1] is T1, PBP3 from Escherichia coli (Escherichia coli, UniProt P0AD68).
T1 construct: made in house
The assay is described as follows: Competition binding assay using Bodipy-FL boronic acid probe (Example 95). The settings on record: PBP3 3 μM, read-out: E. coli K12 PBP3 Potency. How it is done:
PBP3 from Escherichia coli was cloned and purified as described previously (King, D. T, et al., ACS Infectious Diseases 2015, 1, 175-184). To establish assay conditions for competition binding, an enzyme titration/saturation binding experiment was performed. […] FP was measured immediately upon addition of PBP3 (Ex, Em), using a Cytation3 (BioTek) microplate reader and measured continuously for 60 minutes. […] The competition binding assay was validated using the beta-lactam ampicillin, with Bocillin-FL at a final concentration of 0.1 μM, PBP3 at a final concentration of 1.5 μM and concentrations of ampicillin from 0-1000 μM. […] Binding assays for boronic acid PBP inhibitors were performed in an identical fashion. Representative results are shown in Table 3, where A represents a potency of >500 μM, B represents a potency between 30 μM and 500 μM inclusive, and C represents a potency of <30 μM. NT=Not Tested.
The method described in Example II was adapted to use a Bodipy-labeled boronic acid PBP inhibitor (Example 13 or Example 95) to assess PBP3 potency of boronic acid PBP inhibitors. The method is identical to that described in Example II for the Bocillin-FL competition binding assay, with the following exceptions: PBP3 from Escherichia coli is used at a final concentration of 3 μM. […]

The target in assay [2] is T2, PBP1a from Escherichia coli (Escherichia coli, UniProt P02918).
T2 construct: made in house
Kind of assay: Radioligand competition binding assay with 14C-labeled boronic acid probe (Example 96). The gist of the method:
(§1)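 Purified PBP (0.1 μM) in 20 mM Tris pH 7.5, 500 mM NaCl, 0.1% Triton X-100 preincubated 60 min with inhibitor, then 60 min with 20 μM 14C-boronic acid probe. Bound probe recovered by spin desalting and counted by scintillation; EC50 is the concentration halving probe binding.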
(In general: Displacement assays read how much labelled ligand stays bound in the presence of the test substance.)

Assay [3] addresses T3, PBP1b from Escherichia coli (Escherichia coli, UniProt P02919).
T3 construct: made in house
Described as above. The gist of the method:
as §1

Assay [4] has as its target T1, PBP3 from Escherichia coli. The assay is described as follows: Fluorescence polarization competition binding assay with Bocillin-FL. The method, boiled down:
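Fluorescence polarization competition assay with Bocillin-FL at 0.1 μM final and purified E. coli PBP3 at 1.5 μM final in 50 mM Hepes pH 8.0, 300 mM NaCl, 5% glycerol. Inhibitor preincubated with PBP3 for 30 min before probe addition; FP then read continuously for 60 min. Potency reported in binned categories.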

[5] abbreviates: PBP1a/PBP1b 0.1 μM, 96 at 20 μM, assay validation, read-out: EC50 (concentration of inhibitor required to reduce binding of 96 by 50%).

Where two headings read alike, the source gives them in different places.

T3 sequence (P02919 whole entry): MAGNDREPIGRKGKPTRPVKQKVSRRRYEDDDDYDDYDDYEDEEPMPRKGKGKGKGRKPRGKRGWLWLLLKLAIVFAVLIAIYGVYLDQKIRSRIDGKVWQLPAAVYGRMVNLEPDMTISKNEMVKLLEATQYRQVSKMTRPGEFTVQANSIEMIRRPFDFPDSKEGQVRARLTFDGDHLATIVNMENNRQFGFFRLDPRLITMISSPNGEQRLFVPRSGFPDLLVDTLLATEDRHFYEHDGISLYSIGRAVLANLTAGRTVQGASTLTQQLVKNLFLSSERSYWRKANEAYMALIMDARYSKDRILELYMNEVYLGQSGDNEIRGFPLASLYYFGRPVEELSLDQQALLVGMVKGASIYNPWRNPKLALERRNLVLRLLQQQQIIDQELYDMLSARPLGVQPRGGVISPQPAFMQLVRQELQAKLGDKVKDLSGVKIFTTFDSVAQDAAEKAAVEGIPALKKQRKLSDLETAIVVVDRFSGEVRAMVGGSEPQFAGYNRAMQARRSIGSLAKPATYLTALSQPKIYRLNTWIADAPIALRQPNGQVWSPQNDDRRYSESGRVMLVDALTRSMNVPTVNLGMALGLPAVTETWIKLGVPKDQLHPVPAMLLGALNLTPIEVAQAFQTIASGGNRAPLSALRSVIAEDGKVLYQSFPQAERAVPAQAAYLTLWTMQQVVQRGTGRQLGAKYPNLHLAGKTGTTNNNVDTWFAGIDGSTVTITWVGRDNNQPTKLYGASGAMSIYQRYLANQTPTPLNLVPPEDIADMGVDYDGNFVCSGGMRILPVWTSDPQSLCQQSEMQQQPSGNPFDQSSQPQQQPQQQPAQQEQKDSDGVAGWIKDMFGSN
T2 sequence (P02918 whole entry): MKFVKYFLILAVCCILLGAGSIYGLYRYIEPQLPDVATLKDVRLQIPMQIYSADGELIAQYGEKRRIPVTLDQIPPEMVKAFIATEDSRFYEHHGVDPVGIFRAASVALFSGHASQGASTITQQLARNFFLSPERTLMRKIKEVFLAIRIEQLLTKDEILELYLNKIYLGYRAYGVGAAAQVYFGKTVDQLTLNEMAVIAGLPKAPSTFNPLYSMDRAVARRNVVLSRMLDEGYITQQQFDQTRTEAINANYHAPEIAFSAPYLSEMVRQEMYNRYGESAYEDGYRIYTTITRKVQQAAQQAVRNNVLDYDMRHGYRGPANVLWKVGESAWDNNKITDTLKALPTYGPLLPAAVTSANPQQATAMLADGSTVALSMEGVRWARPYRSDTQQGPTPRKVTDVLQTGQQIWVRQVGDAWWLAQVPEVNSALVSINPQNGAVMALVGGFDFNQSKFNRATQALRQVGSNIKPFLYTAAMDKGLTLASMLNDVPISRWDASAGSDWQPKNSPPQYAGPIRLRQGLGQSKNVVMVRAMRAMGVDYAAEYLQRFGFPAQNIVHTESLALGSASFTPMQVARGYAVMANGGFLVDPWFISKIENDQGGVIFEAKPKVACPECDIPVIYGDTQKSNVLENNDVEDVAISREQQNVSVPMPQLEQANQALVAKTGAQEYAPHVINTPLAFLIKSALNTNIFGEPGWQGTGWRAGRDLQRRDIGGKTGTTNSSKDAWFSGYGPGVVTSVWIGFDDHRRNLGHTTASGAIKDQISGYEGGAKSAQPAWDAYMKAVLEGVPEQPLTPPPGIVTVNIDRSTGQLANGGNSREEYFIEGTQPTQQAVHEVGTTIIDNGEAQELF
T1 sequence (P0AD68 1-577): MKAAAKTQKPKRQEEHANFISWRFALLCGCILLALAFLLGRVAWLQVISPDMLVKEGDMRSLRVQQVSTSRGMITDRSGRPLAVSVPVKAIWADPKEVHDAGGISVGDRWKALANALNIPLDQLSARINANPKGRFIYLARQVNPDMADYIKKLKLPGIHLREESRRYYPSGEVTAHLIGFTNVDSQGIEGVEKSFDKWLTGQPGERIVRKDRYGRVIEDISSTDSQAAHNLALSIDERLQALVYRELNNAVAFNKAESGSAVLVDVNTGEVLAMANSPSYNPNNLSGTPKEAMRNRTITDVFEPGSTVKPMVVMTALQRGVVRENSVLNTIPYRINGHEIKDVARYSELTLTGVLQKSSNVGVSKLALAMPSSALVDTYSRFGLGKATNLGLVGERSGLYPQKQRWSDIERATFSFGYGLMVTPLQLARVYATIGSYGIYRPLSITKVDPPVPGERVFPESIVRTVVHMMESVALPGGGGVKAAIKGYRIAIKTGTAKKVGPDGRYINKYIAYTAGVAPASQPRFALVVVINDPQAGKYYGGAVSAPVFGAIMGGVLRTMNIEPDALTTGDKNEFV

For the compound `CC1(C)S[C@@H]2[C@H](NC(=O)[C@H](N)c3ccccc3)C(=O)N2[C@H]1C(=O)O` [ampicillin, reference compound], the EC50 in assay [1] is < 10 µM; in assay [2] (14C-labeled probe 96 at 20 μM, PBP 0.1 μM, read-out: E. coli K12 PBP1a EC50) it was < 10 µM; in assay [2] (setting [5]) it was < 0.5 µM; in assay [3] (14C-labeled probe 96 at 20 μM, PBP 0.1 μM, read-out: E. coli K12 PBP1b EC50) it was < 10 µM; in assay [3] (setting [5]), < 0.5 µM; in assay [4] it was 1400 nM.
